Results published in patent EP1935887A1, “Heterocyclic substituted carbonyl derivatives and their use as dopamine D3 receptor ligands” (Aventis Pharmaceuticals Inc., priority 2001, dated 2002).

Target: T1, CLONED HUMAN ALPHA-1A ADRENERGIC RECEPTORS (α1a) (Homo sapiens, UniProt P35348)
T1 construct: expressed in transfected cells; host or cells: CHO cells, G418-resistant clone #7, vector pcDNA3; membranes
T1 sequence (P35348 1-466): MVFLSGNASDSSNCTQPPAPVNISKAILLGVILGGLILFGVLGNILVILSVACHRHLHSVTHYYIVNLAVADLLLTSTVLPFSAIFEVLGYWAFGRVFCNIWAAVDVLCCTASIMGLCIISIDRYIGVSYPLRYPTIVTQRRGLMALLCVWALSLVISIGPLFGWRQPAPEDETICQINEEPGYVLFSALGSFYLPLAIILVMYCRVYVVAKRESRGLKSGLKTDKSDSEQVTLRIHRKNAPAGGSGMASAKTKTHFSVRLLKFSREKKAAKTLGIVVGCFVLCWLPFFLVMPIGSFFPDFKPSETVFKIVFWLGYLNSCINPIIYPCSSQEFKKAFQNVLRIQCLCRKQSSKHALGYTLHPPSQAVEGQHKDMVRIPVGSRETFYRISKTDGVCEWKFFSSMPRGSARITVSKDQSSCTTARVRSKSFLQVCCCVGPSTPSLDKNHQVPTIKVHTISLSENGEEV
Experiment: [3H]Prazosin binding to cloned human alpha-1A adrenergic receptors expressed in CHO cells
Description: ^3H]PRAZOSIN BINDING TO CLONED HUMAN ALPHA-1A ADRENERGIC RECEPTORS (α1a) EXPRESSED IN CHINESE HAMSTER OVARY CELLS (CHO)
• purpose: This in vitro assay is designed as a screen to identify compounds displaying a affinity for the human α1a adrenoceptor subtype expressed in the membrane fragments of CHO cells. The assay measures the ability of the test compounds to displace [^3H] prazosin from α1a sites. The identification of multiple vascular α1-addrenoceptors (α1a, α1b, α1d) in vitro has provided impetus to define the role(s) of these subtypes in cardiovascular regulation in vivo (Vargas and Gorman, 1995). […] Therefore, the binding of compounds to α1a adrenergic receptors is believed to be a good measure of a compound's potential to cause orthostatic hypotension and sedation as side effects. Prazosin is a potent antagonist of the human α1a-adrenoceptor subtype, which has been cloned and is expressed in the membrane fragments of CHO cells. • hα1areceptor: The cloning of the human α1a cDNA was accomplished first by screening a human prostate cDNA library (Clontech), from which a portion of the coding region was obtained. This DNA fragment was then used to screen a human leukocyte genomic library (Clontech), and the rest of the coding sequence was obtained. Later these two fragments were spliced together. The entire coding sequence was then fully sequenced including matching PCR sequence with original genomic coding sequence, thus ensuring splice sites were joined correctly (Schwinn et al., 1995). Once sequenced, the gene was subcloned into the expression vector pcDNA3 (Invitrogen). Plasmid DNA was then used for transfection into CHO cells and G418 resistant clones were isolated. A clone expressing high levels of the hα1a receptor (as determined by mRNA and receptor binding data) was chosen and pharmacologically characterized. • Culture Media: Media Ingredients for Adherent α1a expressing CHO Culture: • A. HAM's F-12 (Cellgro) • B. 10% 0.2 micron filtered Fetal Bovine Serum (FBS)(Cellgro) • C. 1% 0.2 micron filtered Penicillin-Streptomycin (Cellgro) • D. G418 0.2 micron filtered (Geneticin 400µg/ml)(Cellgro) Cells are cultured using established methods and procedures in either 150x25mm culture plates (scale up to 100 plates) or a combination of these plates and 70 roller bottles. One culturing/harvest cycle typically requires 2 weeks and yields between 100-400mg protein. Plates or bottles are incubated at 37°C + 5% CO2. • Storage: Cells are harvested by mechanical scraping, washed using PBS, collected in 250ml Corning polypropylene centrifuge tubes, spun down (1500RPM) and resuspended in dH2O 10% DMSO (final volume per harvest is approximately 50ml). Protein determination is made using the Biorad DC Assay Kit. […] Bd. = 50µl 10µM phentolamine+50 µl [^3H]prazosin+100µl membrane Test Cpd. = 50µl compound + 50µl [^3H]prazosin + 100µl membrane Compounds to be evaluated are weighed out to yield a 10 mM stock solution in DMSO in a 24 well polystyrene plate. This is diluted to a 0.5 mM stock in dH2O. Serial dilutions in Buffer A are made from which 50 µl additions to the plate are made in duplicate in order to achieve the final concentrations desired. Typically, one 96 well plate is used to evaluate 11 compounds at 4 concentrations (10^-6-10^-9 M) in duplicate. Total binding and nonspecific binding are determined in quadruplicate. Usually one standard is run with each assay. [^3H]Prazosin is made up in Buffer A such that when 50 µl are added per well the final concentration is 1.0 nM in a final assay volume of 200 µl. The final concentration should be verified by running a sample in a scintillation counter prior to adding the [^3H]prazosin to the 96 well plate. Note: The radioactivity should be prepared just before the additions are made so that it is not allowed to sit on the bench for very long. […]

halpha1 % I h=human (@ 1 uM) [% Inh @ 1 uM]	Structure (SMILES)	other results
44.4	CC1(C)CCCN(C(=O)CCCN2CCN(c3csc4cc(C(F)(F)F)ccc34)CC2)C1 [compound 826817]	
27.8	CCOC(=O)[C@H]1CC[C@H](NC(=O)CCCN2CCN(c3csc4cc(C(F)(F)F)ccc34)CC2)CC1 [compound 826805]	
	O=C(CCCN1CCN(c2csc3cc(C(F)(F)F)ccc23)CC1)NC1CCCCC1 [compound 826821]	halpha1 % I h=human (@ 0.1 nM): 24% Inh @ 0.1 nM
32.8	C[C@H]1CC[C@H](NC(=O)CCCN2CCN(c3csc4cc(C(F)(F)F)ccc34)CC2)CC1 [compound 826804]	
	CC1CCCN(C(=O)CCCN2CCN(c3csc4cc(F)ccc34)CC2)C1 (stereo not shown) [compound 826855]	Ki (human alpha-1 receptor, read-out: halpha1Ki (nM) h=human): 0.689 nM
30.5	CCN(C(=O)CCCN1CCN(c2csc3cc(C(F)(F)F)ccc23)CC1)C1CCCCC1 [compound 826809]	
10.3	CC[C@H]1CC[C@H](NC(=O)CCCN2CCN(c3csc4cc(C(F)(F)F)ccc34)CC2)CC1 [compound 826806]	
